{"source": "patent US20050101542A1", "about": "“Combination therapy for controlling appetites” (Regents of the University of California, priority 2002, published 2005)", "key": {"c-fos mRNA": {"test_system": "c-fos mRNA", "experiment": "c-fos mRNA in situ hybridization in rat brain", "format": "in vivo", "conditions": "10 mg per kg i.p., 60 min; PVN, supraoptic nucleus, NST", "method": "In situ hybridization. Rats were accustomed to the handling and injection procedure for five days. On day six, vehicle or drug OEA (10 mg per kg, i.p.), or oleic acid (10 mg per kg) was administered, and the rats killed 60 min later by decapitation under anesthesia. In situ hybridization analyses were conducted using ^35S-labeled cRNA probes for c-fos (Guthrie et al., Proc. Natl. Acad. Sci. U.S.A., 90:3329-3333 (1993)) and choline acetyl transferase (ChAT) (Lauterborn et al., Brain Res. Mol. Brain Res., 17:59-69 (1993)). Average hybridization densities were determined from at least three tissue sections per rat. Statistical significance was evaluated using one-way analysis of variance (ANOVA) followed by the Tukey-Kramer post-hoc test for paired comparisons.\nThe compounds of the invention may use peripheral sensory inputs to suppress appetite. Peripheral sensory inputs related to appetite suppression recruit several CNS structures, which include the nucleus of the solitary tract (NST) in the brainstem and the arcuate and paraventricular (PVN) Nuclei in the hypothalamus (Schwartz et al., Nature, 404:661-671 (2000)). To identify the brain pathways engaged during OEA-induced hypophagia, mRNA levels for the activity regulated gene c-fos (Curran et al., Oncogene, 2:79-84 (1987)) were mapped by in situ hybridization after systemic administration of OEA, oleic acid or vehicle. […]"}, "[1]": {"experiment": "Subchronic OEA in high-fat-fed obese wild-type and PPARα null mice", "format": "in vivo, mouse", "conditions": "4 weeks; for hypercholesterolemia (serum cholesterol): 5 mg-kg^−1 once daily i.p.", "method": "Subchronic experiments. Male wild-type and PPARα null mice were fed with a very high-fat diet (60 kcal % fat; D12492; Research Diets, NJ). […] The mice were divided into 4 groups (n=7-8 each), and treated them for 4 additional weeks with vehicle (saline/polyethylene glycol/Tween 80, 90/5/5; 1 ml-kg^−1) Or OEA (5 mg-kg^−1, once daily, i.p.). In a separate experiment, obese Zucker rats were treated for 2 weeks with vehicle or OEA (5 mg-kg^−1, once daily, i.p.), while maintaining them on a regular rodent chow (RMH 2500, Prolab). Food intake and body weight were measured daily. At the end of the experiments, the animals were fasted overnight, and tissues and blood samples collected for biochemical analyses.\nLipids were extracted from mouse liver and epidydimal adipose tissue (Bligh and Dyer, 1959) and measured triglycerides with a commercial kit (Sigma). Serum lipids and glucose were measured with an automated Synchron LX® system (Beckman-Coulter)."}, "human PPARγ": {"molecular_target": "T1, human PPARγ (Homo sapiens, UniProt P37231)", "T1 construct": "expressed in transfected cells; host or cells: HeLa (clonal reporter line HLR, stably transfected with pFA-PPARγ)", "T1 sequence (P37231 238-503 limits assumed)": "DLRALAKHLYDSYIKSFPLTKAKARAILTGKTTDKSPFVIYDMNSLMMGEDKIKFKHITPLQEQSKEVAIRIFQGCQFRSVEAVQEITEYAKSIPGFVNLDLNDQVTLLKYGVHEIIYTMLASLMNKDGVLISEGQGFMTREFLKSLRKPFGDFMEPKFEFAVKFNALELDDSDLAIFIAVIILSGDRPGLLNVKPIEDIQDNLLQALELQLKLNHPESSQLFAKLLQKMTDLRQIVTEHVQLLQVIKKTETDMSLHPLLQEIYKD", "experiment": "GAL4 chimeric receptor transactivation assay in HeLa cells, PPARγ", "format": "cell-based", "method": "Transactivator plasmids pFA-PPARα, pFA-PPARδ, pFA-PPARγ and pFA-RXR, which encoded for the […] Of hPPARα ? ((499-1404), hPPARδ (412-1320), hPPARγ (610-1434) and hRXR (402-1389) fused to the DNA-binding domain (residues 1-147) Of yeast GAL4 under control of the human cytomegalovirus (CMV) promoter were generated. The plasmids contained a neomycin-resistance gene to provide stable selection with G418 (200 μg-ml^−1; Calbiochem). The HeLa cells were cultured in Dulbecco's-modified Eagles's medium (DMEM) supplemented with fetal bovine serum (10%). The cells were transfected with Fugene 6 (3 μl, Roche) Containing the pFR-luc plasmid (1 μg, Stratagene). Eighteen hours following transfection, the culture media was replaced with supplemented DMEM containing hygromycin (100 μg-ml^−1, Calbiochem). After 4 weeks in culture, the surviving clones were isolated and analyzed by luciferase assay. […] The cells were cultured in supplemented DMEM containing hygromycin and G418. For transactivation assays, cells were seeded in 6-well plates (50,000 cells per well) and incubated for 7 hours in supplemented DMEM containing hygromycin and G418, plus appropriate concentrations of test compounds. Dual-luciferase reporter assay system (Promega) and an MLX Microtiter® plate luminometer (Dynex) were used to determine luciferase activity in cell lysates. […]"}, "Soleus muscle": {"test_system": "Soleus muscle", "experiment": "[14C]oleate oxidation to CO2 in soleus muscle", "format": "cell-based, rat", "conditions": "10 μM, 30 min incubation", "description": "This example illustrates the effect of OEA on fat metabolism and methods for studying the same. Oleoylethanolamide (OEA) decreases body weight not only by suppressing appetite, but also by possibly enhancing body fat catabolism. The effects of OEA on fatty acid oxidation in major body-fat burning tissues (soleus muscle, liver, cultured cardiac myocytes and astrocytes) was examined. […] In addition, OEA induces a significant mobilization of triacylglycerol stores from primary white adipose tissue cells. Table 4 details the methods and effects of OEA on fatty acid oxidation in these cells. Structure-activity relationship experiments provide evidence that the effect of OEA on skeletal muscle fatty acid oxidation is specific (FIG. 8)."}, "[2]": {"conditions": "obese wild-type mice, 5 mg-kg^−1 i.p. daily"}}}
{"smiles": "CCCCCCCC/C=C\\CCCCCCCC(=O)NCCO", "note": "[OEA, Z-2-hydroxyethyl octadec-9-enamide]", "values": [{"measurement": "c-fos mRNA levels in brain regions", "setting": "c-fos mRNA", "value": "highly localized increase"}, {"measurement": "hypercholesterolemia (serum cholesterol)", "setting": "[1]; high fat-fed PPARα-null mice", "value": "ineffective"}, {"measurement": "hypercholesterolemia (serum cholesterol)", "setting": "[1]; high fat-fed wild-type mice", "value": "partially corrected"}, {"measurement": "cumulative food intake and body-weight gain", "setting": "[1]; obese PPARα deficient mice, 5 mg-kg^−1 i.p. daily", "value": "no such effect"}, {"measurement": "body-weight gain", "setting": "[1]; [2]", "value": "suppressed"}, {"measurement": "cumulative food intake (normalized for body mass)", "setting": "[1]; [2]", "value": "significantly reduced"}, {"measurement": "effect on PPARγ", "setting": "human PPARγ", "value": "no effect"}, {"measurement": "Stimulatory effect of 10 μM OEA on [14C]oleate oxidation to CO2", "setting": "Soleus muscle", "value": "36 ± 10 (n = 4) %"}]}
